# Measurements taken from paper PMC7363588, “Mapping of the FGF14:Nav1.6 complex interface reveals FLPK as a functionally active peptide modulating excitability” (Physiological Reports, 2020).
# Where “and” joins values, the source holds several entries; their conditions need not be identical. Identical values can stand only once. Entries after “also recorded” stand apart in the source; their conditions may differ. Peptide text beside a SMILES is read from it.
# Biological target: T1, Nav1.6 (Homo sapiens, UniProt Q9UQD0)
# T1 construct: expressed in transfected cells
# Test: Whole-cell patch-clamp, HEK-Nav1.6 cells expressing GFP
# Type: cell-based
# Details: 50 μM FLPK
# Procedure: HEK293 cells were maintained in DMEM and F‐12 (Invitrogen, Carlsbad, CA), supplemented with 0.05% glucose, 0.5 mM pyruvate, 10% fetal bovine serum, 100 units/ml penicillin, and 100 µg/ml streptomycin (Invitrogen), and incubated at 37 °C with 5% CO2. HEK293 cells stably expressing the human Nav1.6 channel (hereafter referred to as HEK‐Nav1.6 cells) were maintained similarly except for the addition of 500 μg/ml G418 (Invitrogen) to maintain stable Nav1.6 expression. Cells were transfected at 80%–90% confluence with equal amount (1 μg each) of plasmid pairs using Lipofectamine 2000 (Invitrogen) according to manufacturer's instructions. HEK‐Nav1.6 cells were washed and replated at very low density prior to electrophysiological recordings (Ali et al., 2016, 2018; Scala et al., 2018; Wadsworth et al., 2019).
# HEK‐Nav1.6 cells transfected with GFP or FGF14‐GFP were plated at low density on glass cover slips for 3–4 hr and subsequently transferred to the recording chamber. Recordings were performed at room temperature (20–22°C) 24 hr posttransfection using a MultiClamp 700B amplifier (Molecular Devices, Sunnyvale, CA). The composition of recording solutions consisted of the following salts; extracellular (mM): 140 NaCl, 3 KCl, 1 MgCl2, 1 CaCl2, 10 HEPES, 10 glucose, pH 7.3; intracellular (mM): 130 CH3O3SCs, 1 EGTA, 10 NaCl, 10 HEPES, pH 7.3. Membrane capacitance and series resistance were estimated by the dial settings on the amplifier and compensated for electronically by 70%–75%. Data were acquired at 20 kHz and filtered at 5 kHz prior to digitization and storage. All experimental parameters were controlled by Clampex 9.2 software (Molecular Devices) and interfaced to the electrophysiological equipment using a Digidata 1,200 analog‐digital interface (Molecular Devices). Voltage‐dependent inward currents for HEK‐Nav1.6 cells were evoked by depolarization to test potentials between −100 mV and +60 mV from a holding potential of −70 mV followed by a voltage prestep pulse of −120 mV (Nav1.6). Steady‐state (fast) inactivation of Nav channels was measured with a paired‐pulse protocol. From the holding potential, cells were stepped to varying test potentials between −120 mV (Nav1.6) and +20 mV (prepulse) prior to a test pulse to −20 mV.
# Current densities were obtained by dividing Na^+ current (INa) amplitude by membrane capacitance. Current–voltage relationships were generated by plotting current density as a function of the […]. Conductance (GNa) was calculated by the following equation: GNa=INa/Vm‐Erev where INa ^+ is the current amplitude at voltage Vm, and Erev is the Na^+ reversal potential.
# Activation curves were derived by plotting normalized GNa as a function of test potential and fitted using the Boltzmann equation: GNa/GNa,Max=1/1+eVa‐Em/k where GNa,Max is the maximum conductance, Va is the membrane potential of half‐maximal activation, Vm is the membrane voltage and k is the slope factor.
# The membrane potential of half‐maximal activation, Em is the membrane voltage and k is the slope factor. For steady‐state inactivation, normalized current amplitude (INa/INa,Max) at the test potential was plotted as a function of prepulse potential (Vm) and fitted using the Boltzmann equation: INa/INa,Max=1/1+e‐Vh‐Em/k where Vh is the potential of half‐maximal inactivation, Em is the membrane voltage, and k is the slope factor.
# To test whether FLKP had any modulatory effects on Nav1.6‐mediated Na^+ currents, we used whole‐cell patch‐clamp electrophysiology in HEK293 cells stably expressing Nav1.6 (HEK‐Nav1.6) that were transiently transfected with either GFP (HEK‐Nav1.6 GFP) or FGF14‐1b‐GFP (HEK‐Nav1.6 FGF14‐GFP); each group was either treated with FLPK (50 μM from a stock solution dissolved in DMSO) or 0.1% DMSO alone (vehicle) (Figure 5a‐c). […]
# T1 sequence (Q9UQD0 whole entry): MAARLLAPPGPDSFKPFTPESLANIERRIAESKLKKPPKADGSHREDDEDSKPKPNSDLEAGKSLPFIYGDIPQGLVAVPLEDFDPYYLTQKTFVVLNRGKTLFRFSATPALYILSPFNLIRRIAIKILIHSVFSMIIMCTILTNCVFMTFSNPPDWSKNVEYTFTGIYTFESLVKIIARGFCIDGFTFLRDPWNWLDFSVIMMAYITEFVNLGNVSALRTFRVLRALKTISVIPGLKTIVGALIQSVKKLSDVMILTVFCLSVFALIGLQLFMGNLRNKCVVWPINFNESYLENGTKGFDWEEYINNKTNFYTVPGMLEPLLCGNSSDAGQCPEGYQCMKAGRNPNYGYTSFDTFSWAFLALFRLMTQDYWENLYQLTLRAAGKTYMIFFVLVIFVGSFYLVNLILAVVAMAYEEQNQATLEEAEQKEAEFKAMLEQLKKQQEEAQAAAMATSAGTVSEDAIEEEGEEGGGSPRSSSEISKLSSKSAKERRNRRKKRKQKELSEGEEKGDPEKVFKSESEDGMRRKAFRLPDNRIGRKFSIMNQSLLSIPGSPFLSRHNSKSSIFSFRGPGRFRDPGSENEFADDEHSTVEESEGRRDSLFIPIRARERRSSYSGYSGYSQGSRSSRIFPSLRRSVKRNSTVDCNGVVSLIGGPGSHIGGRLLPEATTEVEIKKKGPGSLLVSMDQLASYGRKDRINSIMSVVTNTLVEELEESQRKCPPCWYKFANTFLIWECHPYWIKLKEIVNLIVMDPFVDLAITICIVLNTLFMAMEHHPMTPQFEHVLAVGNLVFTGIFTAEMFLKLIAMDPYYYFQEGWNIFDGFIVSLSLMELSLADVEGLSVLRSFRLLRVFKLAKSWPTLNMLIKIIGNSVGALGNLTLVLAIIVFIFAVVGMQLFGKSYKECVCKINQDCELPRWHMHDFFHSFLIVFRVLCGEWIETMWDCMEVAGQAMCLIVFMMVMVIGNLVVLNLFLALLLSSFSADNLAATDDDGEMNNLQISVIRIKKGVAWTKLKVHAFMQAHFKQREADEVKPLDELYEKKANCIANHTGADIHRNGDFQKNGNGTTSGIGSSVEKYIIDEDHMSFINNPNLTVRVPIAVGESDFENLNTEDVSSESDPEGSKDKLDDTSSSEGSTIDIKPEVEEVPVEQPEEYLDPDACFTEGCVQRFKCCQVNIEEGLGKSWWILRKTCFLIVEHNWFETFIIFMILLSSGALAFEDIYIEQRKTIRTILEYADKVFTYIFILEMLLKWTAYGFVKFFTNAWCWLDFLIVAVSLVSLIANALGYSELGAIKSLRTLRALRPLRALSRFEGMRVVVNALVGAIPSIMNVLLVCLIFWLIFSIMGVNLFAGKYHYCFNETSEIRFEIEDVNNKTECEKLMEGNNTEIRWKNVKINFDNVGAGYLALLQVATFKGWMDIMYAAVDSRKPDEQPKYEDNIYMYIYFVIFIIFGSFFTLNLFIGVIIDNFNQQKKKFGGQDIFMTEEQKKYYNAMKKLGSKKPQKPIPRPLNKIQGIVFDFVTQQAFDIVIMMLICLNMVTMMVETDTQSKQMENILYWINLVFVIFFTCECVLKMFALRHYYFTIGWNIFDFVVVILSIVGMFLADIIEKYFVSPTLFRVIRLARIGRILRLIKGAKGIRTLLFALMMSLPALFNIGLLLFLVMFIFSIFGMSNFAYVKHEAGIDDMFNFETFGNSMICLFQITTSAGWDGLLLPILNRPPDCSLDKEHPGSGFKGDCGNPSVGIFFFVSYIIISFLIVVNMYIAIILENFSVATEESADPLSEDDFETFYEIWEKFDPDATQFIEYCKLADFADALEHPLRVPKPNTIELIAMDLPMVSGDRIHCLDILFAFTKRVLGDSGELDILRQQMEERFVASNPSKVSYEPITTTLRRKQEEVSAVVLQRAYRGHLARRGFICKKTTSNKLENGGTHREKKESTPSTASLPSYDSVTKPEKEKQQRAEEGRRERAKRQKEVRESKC
compound,measurement,setting,value
CC(=O)N[C@@H](Cc1ccccc1)C(=O)N[C@@H](CC(C)C)C(=O)N1CCC[C@H]1C(=O)N[C@@H](CCCCN)C(N)=O [FLPK] (Ac-FLPK-NH2),effect on Nav1.6 currents without FGF14,HEK-Nav1.6 GFP vs 0.1% DMSO,not statistically different; also recorded: no measurable effects in cells expressing Nav1.6 alone
same,"Tau (τ), decay time constant of I Na","HEK-Nav1.6 GFP, at −10 mV, mean ± SEM (n = 12), DMSO 1.0 ± 0.08, p = .0495",0.8 ± 0.03 ms and 0.8 ± 0.03 (12)r ms
same,Peak density (I Na),"HEK-Nav1.6 GFP, at −10 mV, mean ± SEM (n = 14), DMSO −58.6 ± 13.9 (Table 3)",−80.8 ± 12.2 pA/pF and −80.8 ± 12.2 (14) pA/pF
same,Kinact,"HEK-Nav1.6 GFP, mean ± SEM (n = 10), DMSO 5.8 ± 0.4",6.1 ± 0.5 (10) mV
same,Steady-state Inactivation (V1/2),"HEK-Nav1.6 GFP, mean ± SEM (n = 10), DMSO −58.9 ± 0.8",−59.3 ± 1.9 (10) mV
same,Kact,"HEK-Nav1.6 GFP, mean ± SEM (n = 12), DMSO 4.3 ± 0.2",3.9 ± 0.3 (12) mV
same,Activation (V1/2),"HEK-Nav1.6 GFP, mean ± SEM (n = 12), DMSO −21.8 ± 1.3",−20.5 ± 1.2 (12) mV
